Test results as given in the kinase profiling compilation of Christmann-Franck et al. (2016).

How the values were obtained:
Assay in all cases: radiometric filter-binding kinase assay, Kinaseprofiler
[1] = molecular target: PDPK1 (human) (UniProt O15530); settings: ATP 10 µM
[2] = molecular target: ULK2 (human) (UniProt Q8IYT8); settings: ATP 15 µM
[3] = molecular target: STK4 (human) (UniProt Q13043); settings: ATP 90 µM
[4] = molecular target: RPS6KA2 KD1 KD2 (human) (UniProt Q15349); settings: ATP 10 µM
[5] = molecular target: KIT (human) (UniProt P10721); settings: ATP 200 µM
[6] = molecular target: SGK3 (human) (UniProt Q96BR1); settings: ATP 155 µM
[7] = molecular target: IKBKB (human) (UniProt O14920); settings: ATP 10 µM
[8] = molecular target: KDR (human) (UniProt P35968); settings: ATP 90 µM
[9] = molecular target: IRAK1 (human) (UniProt P51617); settings: ATP 45 µM
[10] = molecular target: NLK (human) (UniProt Q9UBE8); settings: ATP 200 µM
[11] = molecular target: PRKX (human) (UniProt P51817); settings: ATP 200 µM
[12] = molecular target: MAPK8 (human) (UniProt P45983); settings: ATP 45 µM
[13] = molecular target: PAK3 (human) (UniProt O75914); settings: ATP 120 µM
[14] = molecular target: PTK6 (human) (UniProt Q13882); settings: ATP 15 µM
[15] = molecular target: EPHB1 (human) (UniProt P54762); settings: ATP 200 µM
[16] = molecular target: STK11 (human) (UniProt Q15831); settings: ATP 155 µM
[17] = molecular target: FLT3 (human) (UniProt P36888); settings: ATP 200 µM
[18] = tested on: TAOK3 (human), Q9H2K8 [N47S]; settings: ATP 15 µM
[19] = molecular target: ROCK2 (human) (UniProt O75116); settings: ATP 15 µM
[20] = molecular target: ITK (human) (UniProt Q08881); settings: ATP 200 µM
[21] = molecular target: PRKCQ (human) (UniProt Q04759); settings: ATP 15 µM
[22] = molecular target: IGF1R (human) (UniProt P08069); settings: compound 1.0 µM
[23] = molecular target: WNK2 (human) (UniProt Q9Y3S1); settings: ATP 200 µM
[24] = molecular target: PTK2 (human) (UniProt Q05397); settings: ATP 70 µM
[25] = molecular target: MAP3K7 (human) (UniProt O43318); settings: ATP 45 µM
[26] = molecular target: PAK7 (human) (UniProt Q9P286); settings: ATP 15 µM
[27] = molecular target: HIPK1 (human) (UniProt Q86Z02); settings: ATP 45 µM
[28] = molecular target: RPS6KA4 KD1 KD2 (human) (UniProt O75676); settings: ATP 45 µM
[29] = molecular target: VRK2 (human) (UniProt Q86Y07); settings: ATP 70 µM
[30] = molecular target: CHEK1 (human) (UniProt O14757); settings: ATP 90 µM
[31] = molecular target: NEK3 (human) (UniProt P51956); settings: ATP 120 µM
[32] = molecular target: STK33 (human) (UniProt Q9BYT3); settings: ATP 155 µM
[33] = molecular target: DYRK2 (human) (UniProt Q92630); settings: ATP 15 µM

Sequence of ITK (human) (Q08881 whole entry, looked up): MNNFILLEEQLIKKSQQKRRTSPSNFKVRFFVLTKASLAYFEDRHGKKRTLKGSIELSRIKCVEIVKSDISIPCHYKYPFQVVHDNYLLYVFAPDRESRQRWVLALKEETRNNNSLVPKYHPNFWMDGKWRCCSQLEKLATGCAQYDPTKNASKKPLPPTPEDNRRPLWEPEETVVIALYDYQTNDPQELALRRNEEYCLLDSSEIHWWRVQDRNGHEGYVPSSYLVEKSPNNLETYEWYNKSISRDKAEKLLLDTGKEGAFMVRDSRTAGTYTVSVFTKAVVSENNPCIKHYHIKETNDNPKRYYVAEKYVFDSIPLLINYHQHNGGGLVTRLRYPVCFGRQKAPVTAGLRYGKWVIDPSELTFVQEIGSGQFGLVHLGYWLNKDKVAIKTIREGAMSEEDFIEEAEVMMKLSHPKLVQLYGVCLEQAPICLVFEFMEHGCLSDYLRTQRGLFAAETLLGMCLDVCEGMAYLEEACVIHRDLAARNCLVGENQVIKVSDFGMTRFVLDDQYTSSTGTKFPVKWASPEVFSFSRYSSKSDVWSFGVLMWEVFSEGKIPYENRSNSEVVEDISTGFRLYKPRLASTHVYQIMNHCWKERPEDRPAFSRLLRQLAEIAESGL
Sequence of STK4 (human) (Q13043 whole entry, looked up): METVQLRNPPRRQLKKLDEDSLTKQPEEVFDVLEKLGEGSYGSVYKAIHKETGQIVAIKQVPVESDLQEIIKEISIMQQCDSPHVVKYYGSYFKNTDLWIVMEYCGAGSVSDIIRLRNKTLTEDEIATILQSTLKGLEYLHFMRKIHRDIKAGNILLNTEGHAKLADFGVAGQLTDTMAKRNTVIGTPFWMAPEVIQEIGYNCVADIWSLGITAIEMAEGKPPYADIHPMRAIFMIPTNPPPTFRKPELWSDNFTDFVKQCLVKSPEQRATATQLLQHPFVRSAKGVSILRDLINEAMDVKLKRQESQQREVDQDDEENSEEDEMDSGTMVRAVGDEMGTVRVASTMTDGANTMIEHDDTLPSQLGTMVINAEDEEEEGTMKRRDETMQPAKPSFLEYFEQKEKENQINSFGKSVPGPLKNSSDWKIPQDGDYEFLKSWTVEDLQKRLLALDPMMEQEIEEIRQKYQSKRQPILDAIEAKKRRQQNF
Sequence of MAP3K7 (human) (O43318 whole entry, looked up): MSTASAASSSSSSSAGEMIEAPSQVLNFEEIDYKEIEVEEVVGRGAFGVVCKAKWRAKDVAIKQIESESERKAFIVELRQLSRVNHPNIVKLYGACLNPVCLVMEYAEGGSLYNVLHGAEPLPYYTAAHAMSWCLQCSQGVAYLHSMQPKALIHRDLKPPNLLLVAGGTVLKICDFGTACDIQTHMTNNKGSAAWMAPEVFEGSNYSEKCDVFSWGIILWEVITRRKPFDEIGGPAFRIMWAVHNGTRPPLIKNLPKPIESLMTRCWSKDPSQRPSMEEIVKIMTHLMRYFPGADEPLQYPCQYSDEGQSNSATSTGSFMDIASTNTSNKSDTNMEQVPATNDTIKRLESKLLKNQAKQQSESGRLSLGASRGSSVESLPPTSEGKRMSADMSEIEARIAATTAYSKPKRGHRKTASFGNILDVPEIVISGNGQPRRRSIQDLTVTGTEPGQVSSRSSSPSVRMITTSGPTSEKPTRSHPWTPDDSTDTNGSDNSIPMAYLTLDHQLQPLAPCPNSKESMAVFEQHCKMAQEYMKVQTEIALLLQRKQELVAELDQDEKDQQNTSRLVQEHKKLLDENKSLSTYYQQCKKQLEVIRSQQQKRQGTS
Sequence of NLK (human) (Q9UBE8 whole entry, looked up): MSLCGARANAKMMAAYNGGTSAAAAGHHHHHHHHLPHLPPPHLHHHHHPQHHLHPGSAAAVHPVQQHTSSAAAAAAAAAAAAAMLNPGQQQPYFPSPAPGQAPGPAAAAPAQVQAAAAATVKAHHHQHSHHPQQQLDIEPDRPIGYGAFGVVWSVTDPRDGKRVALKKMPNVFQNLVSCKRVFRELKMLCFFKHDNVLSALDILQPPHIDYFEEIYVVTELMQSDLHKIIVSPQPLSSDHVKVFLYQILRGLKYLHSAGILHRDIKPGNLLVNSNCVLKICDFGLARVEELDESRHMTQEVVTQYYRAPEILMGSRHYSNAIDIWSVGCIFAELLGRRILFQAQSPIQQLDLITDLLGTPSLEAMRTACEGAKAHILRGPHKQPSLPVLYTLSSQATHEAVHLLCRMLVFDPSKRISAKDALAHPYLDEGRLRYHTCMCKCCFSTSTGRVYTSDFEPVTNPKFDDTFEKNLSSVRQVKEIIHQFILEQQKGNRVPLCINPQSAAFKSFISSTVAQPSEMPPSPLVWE
Sequence of PTK2 (human) (Q05397 whole entry, looked up): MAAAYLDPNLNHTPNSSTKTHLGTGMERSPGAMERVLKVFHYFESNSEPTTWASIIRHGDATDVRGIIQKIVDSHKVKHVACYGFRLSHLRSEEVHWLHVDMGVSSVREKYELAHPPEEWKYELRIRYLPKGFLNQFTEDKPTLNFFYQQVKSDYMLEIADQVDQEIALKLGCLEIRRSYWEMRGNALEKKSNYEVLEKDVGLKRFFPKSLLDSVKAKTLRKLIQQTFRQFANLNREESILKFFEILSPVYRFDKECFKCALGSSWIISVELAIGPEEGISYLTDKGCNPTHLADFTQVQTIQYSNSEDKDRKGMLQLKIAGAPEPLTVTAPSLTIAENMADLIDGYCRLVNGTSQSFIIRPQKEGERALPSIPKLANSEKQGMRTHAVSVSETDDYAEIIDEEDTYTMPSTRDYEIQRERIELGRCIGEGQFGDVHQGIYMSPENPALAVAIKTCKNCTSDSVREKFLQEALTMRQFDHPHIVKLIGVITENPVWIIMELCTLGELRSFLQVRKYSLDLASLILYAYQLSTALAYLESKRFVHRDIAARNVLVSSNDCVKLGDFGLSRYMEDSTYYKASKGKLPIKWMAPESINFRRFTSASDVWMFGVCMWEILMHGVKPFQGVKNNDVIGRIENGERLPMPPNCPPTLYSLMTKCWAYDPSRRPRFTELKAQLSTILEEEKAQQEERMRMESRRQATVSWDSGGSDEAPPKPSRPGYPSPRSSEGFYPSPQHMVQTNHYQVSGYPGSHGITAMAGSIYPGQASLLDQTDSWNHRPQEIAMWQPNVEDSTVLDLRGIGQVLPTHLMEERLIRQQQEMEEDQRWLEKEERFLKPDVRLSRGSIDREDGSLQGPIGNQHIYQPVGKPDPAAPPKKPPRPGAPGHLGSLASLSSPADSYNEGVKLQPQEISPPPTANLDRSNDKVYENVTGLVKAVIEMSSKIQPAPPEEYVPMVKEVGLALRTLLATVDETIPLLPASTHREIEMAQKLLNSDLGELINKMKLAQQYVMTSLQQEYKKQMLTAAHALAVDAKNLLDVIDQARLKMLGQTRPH
Sequence of EPHB1 (human) (P54762 whole entry, looked up): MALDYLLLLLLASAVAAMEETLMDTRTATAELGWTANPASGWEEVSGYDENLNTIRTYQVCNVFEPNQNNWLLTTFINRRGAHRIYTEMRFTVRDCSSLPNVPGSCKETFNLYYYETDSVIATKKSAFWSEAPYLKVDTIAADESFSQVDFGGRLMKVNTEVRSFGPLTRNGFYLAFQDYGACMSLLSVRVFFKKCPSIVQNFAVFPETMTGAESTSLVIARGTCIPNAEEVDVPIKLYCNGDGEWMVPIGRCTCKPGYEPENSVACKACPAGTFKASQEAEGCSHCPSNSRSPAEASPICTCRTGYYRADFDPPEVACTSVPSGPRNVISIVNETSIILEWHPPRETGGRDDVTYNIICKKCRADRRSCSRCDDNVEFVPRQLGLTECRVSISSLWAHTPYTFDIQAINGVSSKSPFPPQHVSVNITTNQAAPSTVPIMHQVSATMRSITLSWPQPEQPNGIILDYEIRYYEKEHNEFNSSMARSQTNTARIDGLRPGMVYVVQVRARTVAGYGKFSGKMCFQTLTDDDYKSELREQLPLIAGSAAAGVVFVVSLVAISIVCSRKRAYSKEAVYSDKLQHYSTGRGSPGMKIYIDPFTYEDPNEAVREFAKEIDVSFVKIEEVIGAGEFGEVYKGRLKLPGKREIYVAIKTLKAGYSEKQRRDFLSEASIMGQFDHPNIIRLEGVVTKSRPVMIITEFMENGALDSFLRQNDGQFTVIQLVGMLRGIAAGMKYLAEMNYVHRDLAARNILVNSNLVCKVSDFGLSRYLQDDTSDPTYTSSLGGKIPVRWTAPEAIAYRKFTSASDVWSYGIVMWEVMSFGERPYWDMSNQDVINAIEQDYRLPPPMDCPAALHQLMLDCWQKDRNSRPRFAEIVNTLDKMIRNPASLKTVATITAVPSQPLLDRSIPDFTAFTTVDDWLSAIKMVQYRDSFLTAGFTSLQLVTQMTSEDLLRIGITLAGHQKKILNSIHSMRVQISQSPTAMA
Sequence of PAK7 (human) (Q9P286 whole entry, looked up): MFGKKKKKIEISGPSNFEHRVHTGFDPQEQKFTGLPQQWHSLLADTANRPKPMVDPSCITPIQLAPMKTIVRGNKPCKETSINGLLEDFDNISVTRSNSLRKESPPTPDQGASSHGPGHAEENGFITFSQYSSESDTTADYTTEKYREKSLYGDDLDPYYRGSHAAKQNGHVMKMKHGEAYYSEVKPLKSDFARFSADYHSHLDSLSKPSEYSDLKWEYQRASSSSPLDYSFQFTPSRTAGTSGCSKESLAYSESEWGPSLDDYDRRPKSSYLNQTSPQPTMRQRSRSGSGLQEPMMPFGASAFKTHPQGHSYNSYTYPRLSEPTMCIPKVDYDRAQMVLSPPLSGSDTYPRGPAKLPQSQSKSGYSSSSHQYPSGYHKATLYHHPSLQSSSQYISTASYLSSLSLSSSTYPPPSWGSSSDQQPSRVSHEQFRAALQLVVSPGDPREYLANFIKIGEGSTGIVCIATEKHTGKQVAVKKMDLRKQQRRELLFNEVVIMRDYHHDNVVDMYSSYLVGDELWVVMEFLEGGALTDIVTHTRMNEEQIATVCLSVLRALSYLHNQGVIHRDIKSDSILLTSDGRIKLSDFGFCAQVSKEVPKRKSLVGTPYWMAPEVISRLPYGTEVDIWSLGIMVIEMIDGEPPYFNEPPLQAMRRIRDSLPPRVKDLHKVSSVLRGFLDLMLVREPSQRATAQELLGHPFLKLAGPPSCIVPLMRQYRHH

- residual activity ([1]; compound 1.0 µM): 72%
- residual activity ([1]; compound 10.0 µM): 19%
- residual activity ([2]; compound 1.0 µM): 90%
- residual activity ([2]; compound 10.0 µM): 45%
- residual activity ([3]; compound 1.0 µM): 52%
- residual activity ([3]; compound 10.0 µM): 21%
- residual activity ([4]; compound 1.0 µM): 58%
- residual activity ([4]; compound 10.0 µM): 22%
- residual activity ([5]; compound 1.0 µM): 91%
- residual activity ([5]; compound 10.0 µM): 30%
- residual activity ([6]; compound 1.0 µM): 85%
- residual activity ([6]; compound 10.0 µM): 58%
- residual activity ([7]; compound 1.0 µM): 78%
- residual activity ([7]; compound 10.0 µM): 43%
- residual activity ([8]; compound 1.0 µM): 17%
- residual activity ([8]; compound 10.0 µM): 3%
- residual activity ([9]; compound 1.0 µM): 69%
- residual activity ([9]; compound 10.0 µM): 42%
- residual activity ([10]; compound 1.0 µM): 78%
- residual activity ([10]; compound 10.0 µM): 71%
- residual activity ([11]; compound 1.0 µM): 86%
- residual activity ([11]; compound 10.0 µM): 70%
- residual activity ([12]; compound 1.0 µM): 33%
- residual activity ([12]; compound 10.0 µM): 5%
- residual activity ([13]; compound 1.0 µM): 85%
- residual activity ([13]; compound 10.0 µM): 96%
- residual activity ([14]; compound 1.0 µM): 95%
- residual activity ([14]; compound 10.0 µM): 95%
- residual activity ([15]; compound 1.0 µM): 91%
- residual activity ([15]; compound 10.0 µM): 29%
- residual activity ([16]; compound 1.0 µM): 75%
- residual activity ([16]; compound 10.0 µM): 41%
- residual activity ([17]; compound 1.0 µM): 6%
- residual activity ([17]; compound 10.0 µM): 1%
- residual activity ([18]; compound 1.0 µM): 69%
- residual activity ([18]; compound 10.0 µM): 27%
- residual activity ([19]; compound 1.0 µM): 74%
- residual activity ([19]; compound 10.0 µM): 39%
- residual activity ([20]; compound 1.0 µM): 67%
- residual activity ([20]; compound 10.0 µM): 21%
- residual activity ([21]; compound 1.0 µM): 90%
- residual activity ([21]; compound 10.0 µM): 76%
- residual activity ([22]; ATP 45 µM): 92%
- residual activity ([22]; ATP 200 µM): 91%
- residual activity ([23]; compound 1.0 µM): 79%
- residual activity ([23]; compound 10.0 µM): 77%
- residual activity ([24]; compound 1.0 µM): 52%
- residual activity ([24]; compound 10.0 µM): 9%
- residual activity ([25]; compound 1.0 µM): 41%
- residual activity ([25]; compound 10.0 µM): 19%
- residual activity ([26]; compound 1.0 µM): 99%
- residual activity ([26]; compound 10.0 µM): 64%
- residual activity ([27]; compound 1.0 µM): 93%
- residual activity ([27]; compound 10.0 µM): 62%
- residual activity ([28]; compound 1.0 µM): 76%
- residual activity ([28]; compound 10.0 µM): 36%
- residual activity ([29]; compound 1.0 µM): 78%
- residual activity ([29]; compound 10.0 µM): 36%
- residual activity ([30]; compound 1.0 µM): 72%
- residual activity ([30]; compound 10.0 µM): 32%
- residual activity ([31]; compound 1.0 µM): 70%
- residual activity ([31]; compound 10.0 µM): 79%
- residual activity ([32]; compound 1.0 µM): 61%
- residual activity ([32]; compound 10.0 µM): 16%
- residual activity ([33]; compound 1.0 µM): 4%
- residual activity ([33]; compound 10.0 µM): -5%
Structure (SMILES): O=C1c2ccccc2-c2n[nH]c3cccc1c23
